Test results as given in the METLIN SMRT retention time set (Domingo-Almenara et al. 2019).

Assay: gradient 5% acetonitrile 3 min, to 50% in 2 min, to 85% in 15 min, held 3 min, 100 µL/min
Conditions: column: Zorbax Extend-C18 2.1 x 50 mm; eluents: water / acetonitrile, 0.1% formic acid
In short: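 Over 3 months, pure standards in mixtures of ~100 molecules were run by HPLC coupled to a quadrupole time-of-flight mass spectrometer in positive and negative ionization mode. The column was a Zorbax Extend-C18 (2.1 × 50 mm, 1.8 μm) at 100 μL/min, eluted with water and acetonitrile each holding 0.1% formic acid, with 40 μL dead and 900 μL dwell volumes. Retention time was determined from adduct peaks chosen by software and checked manually.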

| SMILES | RP-LC retention time [s] |
| --- | --- |
| Cc1ccc(C)c(N2CCN(Cc3nc(-c4ccc(N5CCC(C)CC5)nc4)no3)CC2)c1 | 1270 |
| C=CCOC(=O)/C=C\C(=O)NC(N)=O | 659 |
| Cc1ccc(C2NC(=O)c3ccccc3N2)s1 (configuration not stated) | 705 |
| Cc1noc(C)c1Cc1ccc(C(=O)N2CCCC2c2nc(CCOCC3CC3)no2)o1 (configuration not stated) | 825 |
| CN(CC1CCOC1)C(=O)NCc1ccc(F)cc1 (configuration not stated) | 669 |
| CCn1cc2c(n1)c(=O)n(Cc1ccccc1)c(=O)n2CC(=O)NCc1ccccc1 | 819 |
| COc1ccc(NC(=O)N2CC(N(Cc3ccncc3)CC(C)C)C2)cc1OC | 622 |
| COC(=O)c1ccc2c(=O)n(-c3ccc(OC)cc3)c(N3CCOCC3)nc2c1 | 896 |
| Cc1ccc(NC(=O)N2CCC(CCN)CC2)cc1F | 612 |
| O=C(NCCC1=CCCCC1)C(=O)NCCN1CCN(c2ccc(F)cc2)CC1 | 633 |
| CCc1noc(-c2nc(-c3ccc(OC)cc3)no2)n1 | 986 |
| COc1cccc(-n2c(=O)c3sccc3n(Cc3nc(-c4ccccc4)no3)c2=O)c1 | 956 |
| Cc1cc(=O)n(CC(=O)Nc2ccccc2)c(N2CCCC2)n1 | 622 |
| Cc1cc(Cl)ccc1NC(=O)C1CCCN(c2ncnc3c2nc2n3CCCCC2)C1 (configuration not stated) | 879 |
| COc1ccc(-c2ncc3c(n2)CCN(S(=O)(=O)c2ccccc2C)C3)cc1 | 1070 |
| O=S(=O)(c1cccc(-c2nnc(-c3ccc(Cl)cc3)o2)c1)N1CCOCC1 | 995 |
| CC(C)c1ccc(S(=O)(=O)N2CCC(C(=O)NCCc3csc(-c4ccccc4)n3)CC2)cc1 | 1080 |
| Cc1[nH]c(=O)[nH]c(=O)c1CCc1nnc(SCC(=O)c2ccc3c(c2)NC(=O)CO3)o1 | 589 |
| Cc1ccc(C)c2sc(NC(=O)CN(C)S(C)(=O)=O)nc12 | 804 |

Next, values leading:

| RP-LC retention time [s] | SMILES |
| --- | --- |
| 855 | Cc1nc(-c2cnccn2)n(CC(=O)Nc2cccc(C(C)C)c2)c(=O)c1C |
| 638 | CCC(=O)Nc1ccc(CCc2nc3ccc(C(=O)NCc4ccc(C)o4)cc3[nH]2)cc1 |
| 629 | Cc1ccc(NC(=O)N2CCc3cn(C)c4cccc(c34)C2)cc1 |
| 736 | CN(C)c1cccc(C(=O)Nc2ccc(-c3nnc4n3CCCC4)cc2)c1 |
| 1060 | O=c1ccc(-c2ccc(F)cc2)nn1CCc1nc(-c2ccc(Cl)cc2)no1 |
| 729 | Cc1nnc(-c2ccc3ccn(CC(=O)NCc4cccs4)c3c2)o1 |
| 892 | Cc1cc(C)n(-c2ccc(CNC(=O)c3ccc(Cl)s3)cc2)n1 |
| 674 | CCC(CC)C(=O)Nc1c(-c2ccc(F)cc2)nc2cc(C)ccn12 |
| 760 | Cn1c(=O)oc2cc(-c3noc(CNC(=O)Cc4ccccc4)n3)ccc21 |
| 1050 | CCc1ccc(S(=O)(=O)N2CCc3c(c(-c4nnc(-c5ccc(F)cc5)o4)nn3C)C2)cc1 |
| 980 | CCOC(=O)Cc1c(C)nc2cc(-c3ccc(OC)cc3)nn2c1C |
| 1060 | COc1ccc(-c2nc(-c3cccc(-c4ccn[nH]4)c3)no2)c(C)c1 |
| 674 | COc1ccccc1CC(=O)Nc1cccn2cnnc12 |
| 1050 | O=c1ccc(-c2ccc3c(c2)OCO3)nn1CCc1nc(-c2ccc(Cl)c(F)c2)no1 |
| 606 | O=C(Cc1ccc(F)cc1)N1CCN(C(=O)c2cc(-c3cccnc3)n[nH]2)CC1 |
| 1220 | CC(C)(C)c1csc(-c2csc(S(=O)(=O)NCc3ccccc3F)c2)n1 |
| 929 | CSc1cccc(NC(=O)NC2CCN(c3cc(C)cc(C)c3)C2=O)c1 (configuration not stated) |
| 852 | O=C(Nc1ccc(F)c(F)c1)C1CCN(C(=O)c2ncn3c2COC(c2ccc(F)cc2)C3)CC1 (configuration not stated) |
